Assays:
B-16/F10 melanoma cells = assay: B-16/F10 melanoma metastasis in C57BL/6 mice; format: in vivo; conditions: 10 mg/kg IM (5 days/week for 2 weeks)
Procedure: (§1) Highly metastatic B-16/F10 melanoma cells were injected into the tail veins of female C57BL/6 mice (1×10^5 cells per mouse). Treatment of one group of mice with the phosphonate compound of the above formula (compound VIII), dissolved into 0.5mL ethanol, 0.5 mL cremaphor and 9.0 mL phosphate buffered saline, began three days after the tumor cells were injected. lntramuscular injections of 0.2 mL of the phosphonate emulsion (10 mg/kg/day) were given for 5 days per week for 2 weeks. A second group of mice were treated with Adriamycin (10 mg/kg given intravenously on days 0, 4 and 8) as a known anti-cancer drug control group, while a third group of mice received the vehicle emulsion alone. The mice were examined every day for general health, behaviour and body weight. Counts of metastatic melanomic tumor colonies found in the lungs, general observations of metastasis to distant organs and examination of organs (liver, kidneys, lungs and spleen) were taken at autopsy 4 weeks after treatment.

[1] = body weight and general toxicity in the B-16/F10 melanoma study; format: in vivo, C57BL/6 mice; conditions: for Body weight (grams): 10 mg/kg IM (5 days/week for 2 weeks)
Procedure: as §1

[2] = system: human colorectal cell line (HT-29); assay: HT-29 tumor growth in nude mice; format: in vivo; conditions: orally once a day, 5 mg/Kg body weight; HT-29 subcutaneous in nude mice
Procedure: Studies were also performed with nude mice injected with the human colorectal cell line (HT-29) subcutaneously.

[3] = system: HT-29 (human colorectal cancer); assay: colonogenic cell survival assay; format: cell-based; conditions: 120 h, read-out: Colonies formed (% of control)
Procedure: (§2) Inhibition of colony formation in soft agar medium (colonogenic cell survival assay) is a more rigorous and direct measurement of cell kill or growth inhibition, and reflects the anti-cancer activity of the test compound. Briefly, tumor cells were cultured in petri dishes in methylcellulose, with or without a phosphonate test compound, and the number of colonies formed during a 5-day incubation period were counted.
(§3) The anti-cancer activity of the phosphonate compound of the formula shown above (compound VIII) was examined in human melanoma and colorectal tumor cell lines using the colonogenic cell survival assay (described above). RPMI-7951 (human melanoma) and HT-29 (human colorectal cancer) tumor cell lines were evaluated for their sensitivity to the cytotoxic activity of the above phosphonate (compound VIII).

[4] = system: RPMI-7951 (human melanoma); assay: colonogenic cell survival assay; format: cell-based; conditions: 120 h, read-out: Colonies formed (% of control)
Procedure: as §2, §3

[5] = system: human melanoma cell line (RPMI-7951); assay: RPMI-7951 melanoma growth and metastasis in nude mice, topical treatment; format: in vivo; conditions: topically twice a day, emulsion of 80 mg/mL; RPMI-7951 intradermal in nude mice
Procedure: Similar studies were also performed with a human melanoma cell line (RPMI-7951) grown in nude mice. Mice injected with RPMI-7951 cell line intradermally developed tumors. When the mice were treated topically, twice a day, with an emulsion of 80 mg/mL of the phosphonate compound of the formula shown above (compound VIII), the growth and metastasis of tumors were retarded by approximately 60%.

[6] = system: L1210 (B-cell lymphoma) cells; assay: survival of CD1 mice injected with L1210 lymphoma cells; format: in vivo; conditions: 10 mg/kg per day IM
Procedure: The effects of phosphonates in a mouse model of lymphoma were also studied. Mice (CD 1) were injected with 1×10^6 L1210 (B-cell lymphoma) cells intraperitoneally. In one group the mice received the phosphonate compound of the following formula at 10 mg/kg per day intramuscularly, while a second group of mice received no treatment: [drawing 18]

[7] = system: HeL, a human erythroid leukemia; assay: colonogenic cell survival assay; format: cell-based; conditions: 120 h, read-out: Colonies formed after 5-days (% of control)
Procedure: as §2
(§4) The anti-cancer activity of the phosphonate of the following formula: [drawing 16] against human leukemia and lymphoma was also studied using the colonogenic cell survival assay. DHL4, a human B cell lymphoma; HeL, a human erythroid leukemia: JRT3T3, a human T-cell lymphoma; and KG 1α, a human mycloid leukemia, were evaluated for their sensitivity to the cytotoxic activity of the phosphonate of the above formula (compound VIII).

[8] = system: DHL4, a human B cell lymphoma; assay: colonogenic cell survival assay; format: cell-based; conditions: 120 h, read-out: Colonies formed after 5-days (% of control)
Procedure: as §2, §4

[9] = system: JRT3T3, a human T-cell lymphoma; assay: colonogenic cell survival assay; format: cell-based; conditions: 120 h, read-out: Colonies formed after 5-days (% of control)
Procedure: as §2, §4

[10] = system: KG1α, a human myeloid leukemia; assay: colonogenic cell survival assay; format: cell-based; conditions: KG-1a, 120 h, read-out: Colonies formed after 5-days (% of control)
Procedure: as §2, §4

[11] = system: MCF-7 (human breast cancer); assay: cytotoxicity IC50 (3H-thymidine uptake, colonogenic cell survival and MTT assays); format: cell-based; conditions: MCF7
Description: (§5) A combination of ^3 H-Thymidine incorporation assay, colonogenic cell survival assay and MTT assay was used to determine cytotoxicity data of phosphonates in several mouse and human tumor cell lines.

[12] = system: L1210 (mouse B-cell lymphoma); assay: as above; format: cell-based
Description: as §5

Question: Which results are given for `CCCCCCCCCCCCCCCCOCC(CCP(=O)([O-])OCC[N+](C)(C)C)OC` (stereo not shown) [compound VIII]?
Answer: melanomic metastasis to distant organs at autopsy (in words) (B-16/F10 melanoma cells): no traces of melanomic metastasis to distant organs were evident in five of six animals; Melanomic tumor colonies found in the lungs at autopsy (B-16/F10 melanoma cells; Mouse 1): 2; Melanomic tumor colonies found in the lungs at autopsy (B-16/F10 melanoma cells; Mouse 2): 0; Melanomic tumor colonies found in the lungs at autopsy (B-16/F10 melanoma cells; Mouse 3): 1; Melanomic tumor colonies found in the lungs at autopsy (B-16/F10 melanoma cells; Mouse 4): 0; Melanomic tumor colonies found in the lungs at autopsy (B-16/F10 melanoma cells; Mouse 5): 0; Melanomic tumor colonies found in the lungs at autopsy (B-16/F10 melanoma cells; Mouse 6): 3; Body weight (grams) ([1]; Mouse 1, day 0): 19 grams; Body weight (grams) ([1]; Mouse 1, day 12): 20 grams; Body weight (grams) ([1]; Mouse 1, day 26): 23 grams; Body weight (grams) ([1]; Mouse 2, day 0): 19 grams; Body weight (grams) ([1]; Mouse 2, day 12): 20 grams; Body weight (grams) ([1]; Mouse 2, day 26): 22 grams; Body weight (grams) ([1]; Mouse 3, day 0): 19 grams; Body weight (grams) ([1]; Mouse 3, day 12): 21 grams; Body weight (grams) ([1]; Mouse 3, day 26): 24 grams; Body weight (grams) ([1]; Mouse 4, day 0): 20 grams; Body weight (grams) ([1]; Mouse 4, day 12): 21 grams; Body weight (grams) ([1]; Mouse 4, day 26): 25 grams; Body weight (grams) ([1]; Mouse 5, day 0): 19 grams; Body weight (grams) ([1]; Mouse 5, day 12): 21 grams; Body weight (grams) ([1]; Mouse 5, day 26): 24 grams; Body weight (grams) ([1]; Mouse 6, day 0): 20 grams; Body weight (grams) ([1]; Mouse 6, day 12): 21 grams; Body weight (grams) ([1]; Mouse 6, day 26): 24 grams; toxicity (weight, behaviour and appearance of the mice; in words) ([1]; intramuscularly, 10 mg/kg for 2 weeks): not toxic; retardation of tumor growth [2]: 30-40%; activity at 2.5 µM ([3]; 2.5 μM): 74%; activity at 5 µM ([3]; 5 μM): 51%; activity at 10 µM ([3]; 10 μM): 22%; activity at 20 µM ([3]; 20 μM): 8%; activity at 40 µM ([3]; 40 μM): 0%; activity at 2.5 µM ([4]; 2.5 μM): 68%; activity at 5 µM ([4]; 5 μM): 43%; activity at 10 µM ([4]; 10 μM): 13%; activity at 20 µM ([4]; 20 μM): 3%; activity at 40 µM ([4]; 40 μM): 0%; retardation of growth and metastasis of tumors [5]: approximately 60%; % Survival ([6]; day 0 after injection of L1210 cells): 100%; % Survival ([6]; day 7 after injection of L1210 cells): 100%; % Survival ([6]; day 8 after injection of L1210 cells): 100%; % Survival ([6]; day 19 after injection of L1210 cells): 100%; % Survival ([6]; day 21 after injection of L1210 cells): 100%; deaths among treated animals (in words) ([6]; up to 21 days of observation): None of the phosphonate-treated (compound VIII) animals died; activity at 1.25 µM ([7]; 1.25 μM): 91 ± 8%; activity at 2.5 µM ([7]; 2.5 μM): 72 ± 5%; activity at 5 µM ([7]; 5 μM): 58 ± 4%; activity at 10 µM ([7]; 10 μM): 26 ± 5%; activity at 20 µM ([7]; 20 μM): 12 ± 3%; activity at 40 µM ([7]; 40 μM): 1 ± 0.5%; activity at 1.25 µM ([8]; 1.25 μM): 76 ± 7%; activity at 2.5 µM ([8]; 2.5 μM): 61 ± 5%; activity at 5 µM ([8]; 5 μM): 42 ± 6%; activity at 10 µM ([8]; 10 μM): 18 ± 4%; activity at 20 µM ([8]; 20 μM): 5 ± 1%; activity at 40 µM ([8]; 40 μM): 0%; activity at 1.25 µM ([9]; 1.25 μM): 87 ± 6%; activity at 2.5 µM ([9]; 2.5 μM): 65 ± 7%; activity at 5 µM ([9]; 5 μM): 34 ± 5%; activity at 10 µM ([9]; 10 μM): 20 ± 3%; activity at 20 µM ([9]; 20 μM): 8 ± 2%; activity at 40 µM ([9]; 40 μM): 3 ± 1%; activity at 1.25 µM ([10]; 1.25 μM): 78 ± 8%; activity at 2.5 µM ([10]; 2.5 μM): 56 ± 6%; activity at 5 µM ([10]; 5 μM): 41 ± 4%; activity at 10 µM ([10]; 10 μM): 15 ± 3%; activity at 20 µM ([10]; 20 μM): 7 ± 1%; activity at 40 µM ([10]; 40 μM): 4 ± 1%; IC50 [11]: 35.3 µM; IC50 [12]: 5 µM

— patent US5506217A, “Phosphonates as anti-cancer agents” (The University of British Columbia, priority 1994, dated 1996)
